{"source": "patent US7829298B2", "about": "“Human G protein-coupled receptors for metabolic-related disorders” (Arena Pharmaceuticals, Inc., priority 2001, dated 2010)", "key": {"hRUP38": {"target": "T1, hRUP38 (Homo sapiens, UniProt P49019)", "T1 construct": "The full length hRUP38 was cloned by PCR using hRUP38 specific primers; expressed in transfected cells", "T1 sequence (P49019 whole entry K94N/T173P/F198L/H253R/I317M/I346M)": "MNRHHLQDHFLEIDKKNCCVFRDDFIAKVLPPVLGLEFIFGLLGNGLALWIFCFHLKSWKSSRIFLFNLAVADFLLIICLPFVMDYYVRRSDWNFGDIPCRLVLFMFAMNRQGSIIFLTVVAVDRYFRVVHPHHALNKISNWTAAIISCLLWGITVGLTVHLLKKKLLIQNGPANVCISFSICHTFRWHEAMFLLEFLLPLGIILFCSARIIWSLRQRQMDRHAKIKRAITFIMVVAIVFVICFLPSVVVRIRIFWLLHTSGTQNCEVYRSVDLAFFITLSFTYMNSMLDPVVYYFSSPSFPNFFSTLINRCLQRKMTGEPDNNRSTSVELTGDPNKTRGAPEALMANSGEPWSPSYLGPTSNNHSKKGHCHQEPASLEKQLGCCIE", "experiment": "Inhibition of forskolin stimulated cAMP in stable CHO cells (adenylyl cyclase assay)", "assay_type": "cell-based", "description": "(§1) A Flash Plate™ Adenylyl Cyclase kit (New England Nuclear; Cat. No. SMP004A) designed for cell-based assays can be modified for use with crude plasma membranes. The Flash Plate wells can contain a scintillant coating which also contains a specific antibody recognizing cAMP. The cAMP generated in the wells can be quantitated by a direct competition for binding of radioactive cAMP tracer to the cAMP antibody. The following serves as a brief protocol for the measurement of changes in cAMP levels in whole cells that express the receptors.\n(§2) Media is carefully aspirated off and discarded. 10 ml of PBS is gently added to each dish of cells followed by careful aspiration. 1 ml of Sigma cell dissociation buffer and 3 ml of PBS are added to each plate. Cells were pipetted off the plate and the cell suspension was collected into a 50 ml conical centrifuge tube. Cells were then centrifuged at room temperature at 1,100 rpm for 5 min. The cell pellet was carefully re-suspended into an appropriate volume of PBS (about 3 ml/plate). The cells were then counted using a hemocytometer and additional PBS was added to give the appropriate number of cells (with a final volume of about 50 μl/well).\nThe cells were then added to the wells and incubated for 60 min at room temperature. 100 μl of Detection Mix containing tracer cAMP was then added to the wells. Plates were then incubated additional 2 hours followed by counting in a Wallac MicroBeta scintillation counter. Values of cAMP/well were then extrapolated from a standard cAMP curve which was contained within each assay plate."}, "hRUP25": {"target": "hRUP25 (Homo sapiens, UniProt Q8TDS4)", "sequence (Q8TDS4 whole entry)": "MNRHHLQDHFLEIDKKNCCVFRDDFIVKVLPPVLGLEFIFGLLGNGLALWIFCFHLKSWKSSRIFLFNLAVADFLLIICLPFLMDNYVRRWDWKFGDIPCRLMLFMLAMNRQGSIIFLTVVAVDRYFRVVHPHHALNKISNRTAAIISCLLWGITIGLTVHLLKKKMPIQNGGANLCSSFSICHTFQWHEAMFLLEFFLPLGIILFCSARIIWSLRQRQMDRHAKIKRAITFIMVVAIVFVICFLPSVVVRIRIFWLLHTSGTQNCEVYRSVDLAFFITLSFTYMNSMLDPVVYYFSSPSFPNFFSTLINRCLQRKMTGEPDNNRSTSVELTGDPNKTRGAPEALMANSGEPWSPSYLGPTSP", "experiment": "Inhibition of forskolin stimulated cAMP accumulation in stable CHO cells (adenylyl cyclase assay)", "assay_type": "cell-based", "conditions": "for inhibition of forskolin stimulated cAMP / agonist or not (in words): CHO cells expressing hRUP25"}, "hRUP19 [1]": {"target": "T2, hRUP19 (Homo sapiens, UniProt Q9BXC0)", "T2 sequence (Q9BXC0 whole entry)": "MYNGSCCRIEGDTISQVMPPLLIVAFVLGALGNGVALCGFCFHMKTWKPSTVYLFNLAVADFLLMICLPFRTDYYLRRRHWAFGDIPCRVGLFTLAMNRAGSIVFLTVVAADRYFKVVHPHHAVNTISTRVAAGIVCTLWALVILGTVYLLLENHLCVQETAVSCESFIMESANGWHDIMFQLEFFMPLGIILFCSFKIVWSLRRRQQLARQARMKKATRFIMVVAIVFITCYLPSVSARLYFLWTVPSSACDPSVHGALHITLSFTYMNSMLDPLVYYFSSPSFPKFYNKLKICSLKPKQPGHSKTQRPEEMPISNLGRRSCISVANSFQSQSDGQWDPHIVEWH", "experiment": "Inhibition of forskolin stimulated cAMP in stable CHO cells (adenylyl cyclase assay)", "assay_type": "cell-based", "design": "The full length hRUP19 was cloned by PCR using primers; expressed in transfected cells", "conditions": "CHO cells expressing hRUP19", "description": "as §1\nas §2, with “μl/well). […]” for “μl/well).”"}, "[2]": {"tested_on": "adipocyte primary cultures derived from human subcutaneous fat", "experiment": "Isoproterenol induced lipolysis in human primary adipocytes", "assay_type": "cell-based", "conditions": "for EC50: read-out: EC50, inhibition of isoproterenol induced lipolysis", "description": "Lipolysis assays were done following the isolation of adipocytes from rat or human. The source of fat from rats was the epididymal fat and from humans was either subcutaneous or omental. Cells were isolated following collagenase digestion and floatation. An elevation of intracellular cAMP levels and concomitant activation of lipolysis via hormone sensitive lipase was accomplished using isoproterenol, forskolin, 3-isobutyl-1-methyl-xanthine (IBMX) or a combination thereof at concentrations and times determined empirically and depending on the source of tissue. […] Data was analyzed using Excel and PrismGraph."}, "hRUP19 [3]": {"target": "T2, hRUP19", "conditions": "HEK293 cells transfected with GqΔGi plus hRUP19"}, "male Sprague Dawley rats": {"tested_on": "male Sprague Dawley rats", "conditions": "for plasma free fatty acids (FFA) level (in words): fasted rats, IP injection, 15 mg/kg, 30 mg/kg or 45 mg/kg, time course"}, "[4]": {"tested_on": "rat epididymal fat derived adipocytes", "conditions": "concentration of 10 μM"}}, "note": "“Also recorded” adds a separate entry of the source. Where two headings read alike, the source gives them in different places.", "data": [{"molecule": "CC(C)n1nnc2cc(C(=O)O)ccc21", "note": "[1-Isopropyl-1H-benzotriazole-5-carboxylic acid]", "values": [{"measurement": "inhibition of forskolin stimulated cAMP / agonist or not (in words)", "setting": "hRUP38; hRUP38-expressing CHO cells", "value": "does and agonist for hRUP38"}, {"measurement": "inhibition of forskolin stimulated cAMP / agonist or not (in words)", "setting": "hRUP25", "value": "no effect"}, {"measurement": "inhibition of forskolin stimulated cAMP / agonist or not (in words)", "setting": "hRUP19 [1]", "value": "no effect"}, {"measurement": "inhibition of isoproterenol stimulated lipolysis (in words)", "setting": "[2]; isoproterenol 100 nM, primary human adipocytes", "value": "dose-dependant manner comparable to that of nicotinic acid; also recorded: dose-dependent manner comparable to that of nicotinic acid; also recorded: inhibit lipolysis"}]}, {"molecule": "CCOc1ccc(Br)cc1C=CC(=O)O", "note": "[3-(5-Bromo-2-ethoxy-phenyl)-acrylic acid]", "values": [{"measurement": "EC50", "setting": "hRUP38; hRUP38-expressing CHO cells", "value": 1170, "unit": "nM"}, {"measurement": "inhibition of forskolin stimulated cAMP / agonist or not (in words)", "setting": "hRUP38; hRUP38-expressing CHO cells", "value": "activates inhibition of forskolin stimulated cAMP; also recorded: agonist for RUP38"}, {"measurement": "inhibition of forskolin stimulated cAMP / agonist or not (in words)", "setting": "hRUP25", "value": "no effect"}, {"measurement": "inhibition of forskolin stimulated cAMP / agonist or not (in words)", "setting": "hRUP19 [1]", "value": "no effect"}]}, {"molecule": "CCCc1nn(C)c(O)c1C(=O)c1cccnc1", "note": "[(5-Hydroxy-1-methyl-3-propyl-1H-pyrazol-4-yl)-pyridin-3-yl-methanone]", "values": [{"measurement": "inhibition of forskolin stimulated cAMP / agonist or not (in words)", "setting": "hRUP38; hRUP38-expressing CHO cells", "value": "not for RUP38"}, {"measurement": "activity on hRUP38-expressing CHO cells (in words)", "setting": "hRUP38; up to a concentration of at least 100 μM (not shown)", "value": "no activity"}, {"measurement": "inhibition of forskolin stimulated cAMP / agonist or not (in words)", "setting": "hRUP25", "value": "activates inhibition of forskolin stimulated cAMP"}, {"measurement": "inhibition of forskolin stimulated cAMP / agonist or not (in words)", "setting": "hRUP25; listed as (5-Hydroxy-1-methyl-3-propyl-1H-pyrazol-4-yl)-pyridin-3-yl-methanone", "value": "agonist for RUP25"}, {"measurement": "EC50", "setting": "hRUP25; hRUP25-expressing CHO cells (stable line #46 in FIG. 18B), read-out: EC50, inhibition of forskolin stimulated cAMP accumulation", "value": 352, "unit": "nM"}]}, {"molecule": "CN1CCC[C@H]1c1cccnc1", "note": "[(−)-nicotine, (−)-NICOTINE, reference compound]", "values": [{"measurement": "EC50", "setting": "hRUP25", "value": 9800, "unit": "nM"}, {"measurement": "inhibition of forskolin stimulated cAMP / agonist or not (in words)", "setting": "hRUP25", "value": "agonist for RUP25"}]}, {"molecule": "c1cncc(-c2nn[nH]n2)c1", "note": "[P-3-T, 3-tetrazole-5-pyridine, reference compound]", "values": [{"measurement": "EC50", "setting": "[2]; adipocyte primary cultures derived from human subcutaneous fat", "value": 218, "unit": "nM"}]}, {"molecule": "O=C(O)c1cccnc1", "note": "[nicotinic acid, Nicotinic acid]", "values": [{"measurement": "inositol phosphates (IPs) accumulation / agonist or not (in words)", "setting": "hRUP19 [3]", "value": "unresponsive"}, {"measurement": "inositol phosphates (IPs) accumulation / agonist or not (in words)", "setting": "hRUP19 [3]; listed as Nicotinic acid", "value": "not for RUP38 or RUP19"}, {"measurement": "plasma FFA versus vehicle control after inhibition, rebound (in words)", "setting": "male Sprague Dawley rats; 45 mg/kg IP, at 3 hr", "value": "rebound effect"}, {"measurement": "plasma free fatty acids (FFA) level (in words)", "setting": "male Sprague Dawley rats", "value": "lower plasma free fatty acids"}, {"measurement": "plasma free fatty acids (FFA) level (in words)", "setting": "male Sprague Dawley rats; listed as niacin", "value": "significantly decrease"}, {"measurement": "inhibition of isoproterenol stimulated lipolysis (in words)", "setting": "[2]", "value": "inhibit lipolysis"}, {"measurement": "EC50", "setting": "[2]; Homo sapiens, Adipocyte", "value": 716, "unit": "nM"}, {"measurement": "inhibition of isoproterenol induced lipolysis (in words)", "setting": "[4]", "value": "inhibiting isoproterenol induced lipolysis"}]}]}
